Laboratory results published in US9505749B2, “Quinazolinone compounds and derivatives thereof” (AMGEN INC., priority 2012, dated 2016).

Assays:
[1] = biological target: 6×HIS-tankyrase1 (1091-1325) (Homo sapiens (Human), UniProt O95271); experiment: Tankyrase 1 biochemical assay (AlphaLisa, PARsylation); conditions: 400 nM NAD, 60 minutes at RT; read-out: TNKS1 IC50
[2] = biological target: 6×HIS-tankyrase 2 (946-1162) (Homo sapiens (Human), UniProt Q9H2K2); experiment: Tankyrase 2 biochemical assay (AlphaLisa, PARsylation); conditions: 250 nM NAD; read-out: TNKS2 IC50
[3] = system: Axin2 accumulation in SW480 cells; experiment: Axin2 384 immunofluorescence assay; assay type: cell-based; conditions: Homo sapiens; SW480 cells, 24 hours; read-out: Axin2 384 IF EC50
PARP1 = PARP1 (Homo sapiens (Human), UniProt P09874); experiment: PARP1 biochemical assay (Trevigen kit)
Source text: PARP1 biochemical assay was purchased as a kit from Trevigen (cat.#4676-096-K) and used per manufacturers recommendations.

PARP2 = PARP2 (Homo sapiens (Human), UniProt Q9UGN5); experiment: PARP2 biochemical assay (BPS kit)
[4] = system: total β-catenin in SW480 colorectal cells; experiment: Total β-catenin MSD 96-well plate assay for SW480 cells; conditions: Homo sapiens, SW480, read-out: SW480-Total beta-catenin (TBC) IC50 IP

Chain of 6×HIS-tankyrase1 (1091-1325) (O95271 1091-1325): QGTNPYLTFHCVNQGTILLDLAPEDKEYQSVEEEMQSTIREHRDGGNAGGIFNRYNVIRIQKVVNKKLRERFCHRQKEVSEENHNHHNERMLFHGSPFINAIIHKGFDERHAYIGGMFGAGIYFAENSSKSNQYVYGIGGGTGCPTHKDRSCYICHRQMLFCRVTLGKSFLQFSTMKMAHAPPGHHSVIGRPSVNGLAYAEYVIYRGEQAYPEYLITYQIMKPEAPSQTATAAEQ
Chain of PARP1 (P09874 whole entry): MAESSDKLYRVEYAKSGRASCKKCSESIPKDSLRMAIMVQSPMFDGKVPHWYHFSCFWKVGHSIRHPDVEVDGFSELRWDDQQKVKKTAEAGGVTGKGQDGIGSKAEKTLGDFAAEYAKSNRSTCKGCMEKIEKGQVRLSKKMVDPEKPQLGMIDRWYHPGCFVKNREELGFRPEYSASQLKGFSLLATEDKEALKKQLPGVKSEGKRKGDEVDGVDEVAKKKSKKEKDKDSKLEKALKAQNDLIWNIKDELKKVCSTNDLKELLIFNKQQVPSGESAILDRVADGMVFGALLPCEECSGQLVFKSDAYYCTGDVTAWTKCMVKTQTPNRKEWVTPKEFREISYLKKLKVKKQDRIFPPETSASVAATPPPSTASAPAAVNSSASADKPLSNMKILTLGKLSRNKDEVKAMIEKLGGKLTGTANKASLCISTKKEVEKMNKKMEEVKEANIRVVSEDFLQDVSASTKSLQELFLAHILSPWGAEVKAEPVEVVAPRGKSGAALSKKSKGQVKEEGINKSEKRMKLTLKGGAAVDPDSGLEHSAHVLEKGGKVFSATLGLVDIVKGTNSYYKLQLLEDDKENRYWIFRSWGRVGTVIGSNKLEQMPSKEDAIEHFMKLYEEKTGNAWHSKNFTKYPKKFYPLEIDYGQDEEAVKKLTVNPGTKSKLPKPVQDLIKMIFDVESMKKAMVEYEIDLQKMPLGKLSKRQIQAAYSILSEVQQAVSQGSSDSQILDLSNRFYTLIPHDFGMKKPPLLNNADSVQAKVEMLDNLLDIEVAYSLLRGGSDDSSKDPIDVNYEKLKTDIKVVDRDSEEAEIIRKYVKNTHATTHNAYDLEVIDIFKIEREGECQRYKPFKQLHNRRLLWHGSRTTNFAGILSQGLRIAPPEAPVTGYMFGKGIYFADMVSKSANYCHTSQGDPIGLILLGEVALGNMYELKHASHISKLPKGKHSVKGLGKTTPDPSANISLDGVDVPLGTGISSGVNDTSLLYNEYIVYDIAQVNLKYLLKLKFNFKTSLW
Chain of PARP2 (Q9UGN5 whole entry): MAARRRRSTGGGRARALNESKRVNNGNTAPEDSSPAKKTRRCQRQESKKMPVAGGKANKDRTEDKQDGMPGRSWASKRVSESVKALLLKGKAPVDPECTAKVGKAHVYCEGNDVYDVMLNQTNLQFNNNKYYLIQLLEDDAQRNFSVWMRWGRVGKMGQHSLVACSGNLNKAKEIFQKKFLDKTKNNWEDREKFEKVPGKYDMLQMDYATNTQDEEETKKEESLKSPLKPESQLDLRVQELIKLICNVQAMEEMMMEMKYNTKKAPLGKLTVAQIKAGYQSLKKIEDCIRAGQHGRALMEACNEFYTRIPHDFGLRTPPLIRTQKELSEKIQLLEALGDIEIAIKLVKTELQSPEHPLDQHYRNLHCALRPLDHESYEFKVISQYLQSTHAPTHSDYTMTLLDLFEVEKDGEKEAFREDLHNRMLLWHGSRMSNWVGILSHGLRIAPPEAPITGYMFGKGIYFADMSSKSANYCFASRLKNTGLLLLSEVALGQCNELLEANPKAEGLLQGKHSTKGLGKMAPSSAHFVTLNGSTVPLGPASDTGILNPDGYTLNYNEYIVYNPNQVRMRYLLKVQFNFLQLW
Chain of 6×HIS-tankyrase 2 (946-1162) (Q9H2K2 946-1162): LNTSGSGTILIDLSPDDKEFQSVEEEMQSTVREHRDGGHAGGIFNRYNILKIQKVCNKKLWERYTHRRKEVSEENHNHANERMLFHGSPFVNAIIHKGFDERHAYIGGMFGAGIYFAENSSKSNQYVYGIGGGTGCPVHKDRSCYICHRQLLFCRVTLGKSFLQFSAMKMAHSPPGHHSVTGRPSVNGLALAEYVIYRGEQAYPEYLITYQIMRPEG

Row | IC50 [1] | IC50 [2] | EC50 [3] | IC50 (PARP1) | IC50 (PARP2) | IC50 [4] | Structure (SMILES)
1 | 31.8 nM | 4.84 nM | 771 nM | 3760 nM | 2350 nM | 92.2 nM | O=C(CCCc1nc2ccccc2c(=O)[nH]1)N1CCC(c2nnc(-c3cccc(F)c3)o2)CC1 [Example 5, 2-(4-(4-(5-(3-fluorophenyl)-1,3,4-oxadiazol-2-yl)-1-piperidinyl)-4-oxobutyl)-4(3H)-quinazolinone]
2 | 0.045 nM | 1.31 nM | 9.45 nM | 1350 nM | 1180 nM | 8.42 nM | N#Cc1ccc2c(c1)[nH]c(=O)n2[C@H]1CC[C@H](NC(=O)CCSc2nc3ccccc3c(=O)[nH]2)CC1 [Example 104, N-((1r,4r)-4-(5-cyano-2-oxo-2,3-dihydro-1H-benzo[d]imidazol-1-yl)cyclohexyl)-3-((4-oxo-3,4-dihydroquinazolin-2-yl)thio)propanamide]
3 | 28.2 nM | 8.26 nM | 843 nM | 7470 nM | 825 nM | 132 nM | O=C(CCCc1nc2ccccc2c(=O)[nH]1)N1CCC(c2nnc(-c3ccccc3)o2)CC1 [Example 42, 2-(4-oxo-4-(4-(5-phenyl-1,3,4-oxadiazol-2-yl)-1-piperidinyl)butyl)-4(3H)-quinazolinone]
4 | 656 nM | 6.31 nM | 601 nM | 3300 nM | 455 nM | 152 nM | Cc1ccc(-c2nnc(C3CCN(C(=O)CCCc4nc5ccccc5c(=O)[nH]4)CC3)o2)cc1 [Example 23, 2-(4-oxo-4-(4-(5-(p-tolyl)-1,3,4-oxadiazol-2-yl)piperidin-1-yl)butyl)quinazolin-4(3H)-one]
5 | 31.4 nM | 12.5 nM | 2680 nM | 1510 nM | 345 nM | 726 nM | O=C(CCSc1nc2ccccc2c(=O)[nH]1)N1CCC(c2nnc(-c3ccccc3)o2)CC1 [Example 83, 2-((3-oxo-3-(4-(5-phenyl-1,3,4-oxadiazol-2-yl)piperidin-1-yl)propyl)thio)quinazolin-4(3H)-one]
6 | 11.3 nM | 3.19 nM | 166 nM | 2850 nM | 370 nM | 151 nM | N#Cc1cccc(-c2nnc(C3CCN(C(=O)CCCc4nc5ccccc5c(=O)[nH]4)CC3)o2)c1 [Example 20, 3-(5-(1-(4-(4-oxo-3,4-dihydroquinazolin-2-yl)butanoyl)piperidin-4-yl)-1,3,4-oxadiazol-2-yl)benzonitrile]
7 | 95.2 nM | 85.1 nM | 1230 nM | 8290 nM | > 170000 nM | 1200 nM | O=C(CCSCc1nc2ccccc2c(=O)[nH]1)N1CCC(c2nnc(-c3ccc(F)cc3)o2)CC1 [Example 93, 2-(((3-(4-(5-(4-fluorophenyl)-1,3,4-oxadiazol-2-yl)-1-piperidinyl)-3-oxopropyl)sulfanyl)methyl)-4(3H)-quinazolinone]
8 | 2.85 nM | 0.614 nM | 192 nM | 2550 nM | 292 nM | 42.3 nM | O=C(CCCc1nc2ccccc2c(=O)[nH]1)N[C@H]1CC[C@H](Oc2ccc(Cl)cc2)CC1 [Example 79, N-(trans-4-(4-chlorophenoxy)cyclohexyl)-4-(4-oxo-3,4-dihydro-2-quinazolinyl)butanamide]
9 | 11.8 nM | 2.39 nM | 951 nM | 1900 nM | 371 nM | 208 nM | O=C(CCCc1nc2ccccc2c(=O)[nH]1)N[C@H]1CC[C@H](Oc2cccnc2)CC1 [Example 59, 4-(4-oxo-3,4-dihydro-2-quinazolinyl)-N-(trans-4-(3-pyridinyloxyl)cyclohexyl)butanamide]
10 | 0.873 nM | 0.206 nM | 217 nM | 464 nM | 349 nM | 302 nM | N#Cc1cccc2c1[nH]c(=O)n2C1CCN(C(=O)CCCc2nc3ccccc3c(=O)[nH]2)CC1 [Example 61, 2-oxo-1-(1-(4-(4-oxo-3,4-dihydro-2-quinazolinyl)butanoyl)-4-piperidinyl)-2,3-dihydro-1H-benzimidazole-4-carbonitrile]
11 | 5.1 nM | 0.826 nM | 191 nM | 723 nM | 1810 nM | 252 nM | O=C(CCCc1nc2ccccc2c(=O)[nH]1)N[C@H]1CC[C@H](Oc2ccncc2)CC1 [Example 70, 4-(4-oxo-3,4-dihydro-2-quinazolinyl)-N-(trans-4-(4-pyridinyloxyl)cyclohexyl)butanamide]
12 | 107 nM | 17.9 nM | 1900 nM | 5070 nM | 560 nM | 1190 nM | O=C(CCCc1nc2ccccc2c(=O)[nH]1)N1CCC(c2nnc(-c3ccccc3Cl)o2)CC1 [Example 16, 2-(4-(4-(5-(2-chlorophenyl)-1,3,4-oxadiazol-2-yl)-1-piperidinyl)-4-oxobutyl)-4(3H)-quinazolinone]
13 | 0.453 nM | 0.341 nM | 25.7 nM | 2840 nM | 1140 nM | 34.8 nM | O=C(CCCc1nc2ccccc2c(=O)[nH]1)N[C@H]1CC[C@H](c2nnc(-c3ccncc3)o2)CC1 [Example 33, 4-(4-oxo-3,4-dihydro-2-quinazolinyl)-N-(trans-4-(5-(4-pyridinyl)-1,3,4-oxadiazol-2-yl)cyclohexyl)butanamide]
14 | 19.4 nM | 4.13 nM | 333 nM | 3130 nM | 1590 nM | 217 nM | Cc1cccc(-c2nnc(C3CCN(C(=O)CCCc4nc5ccccc5c(=O)[nH]4)CC3)o2)c1 [Example 22, 2-(4-oxo-4-(4-(5-(m-tolyl)-1,3,4-oxadiazol-2-yl)piperidin-1-yl)butyl)quinazolin-4(3H)-one]
15 | 88.4 nM | 29.5 nM | 2950 nM | 7630 nM | 4670 nM | > 10000 nM | O=C(CCCSc1nc2ccccc2c(=O)[nH]1)N1CCC(c2nnc(-c3ccccc3)o2)CC1 [Example 111, 2-((4-oxo-4-(4-(5-phenyl-1,3,4-oxadiazol-2-yl)piperidin-1-yl)butyl)thio)quinazolin-4(3H)-one]
16 | 42.8 nM | 6.54 nM | 461 nM | 7090 nM | 1240 nM | 358 nM | O=C(CCCc1nc2ccccc2c(=O)[nH]1)N1CCC(c2nnc(-c3cccnc3)o2)CC1 [Example 13, 2-(4-oxo-4-(4-(5-(3-pyridinyl)-1,3,4-oxadiazol-2-yl)-1-piperidinyl)butyl)-4(3H)-quinazolinone]
17 | 17.1 nM | 4.89 nM | 242 nM | 2030 nM | 1450 nM | 154 nM | N#Cc1ccc(-c2nnc(C3CCN(C(=O)CCCc4nc5ccccc5c(=O)[nH]4)CC3)o2)cc1 [Example 21, 4-(5-(1-(4-(4-oxo-3,4-dihydroquinazolin-2-yl)butanoyl)piperidin-4-yl)-1,3,4-oxadiazol-2-yl)benzonitrile]
18 | 0.167 nM | 3.13 nM | 10.7 nM | 2500 nM | 319 nM | 3.79 nM | N#Cc1ccc(O[C@H]2CC[C@H](NC(=O)CCSc3nc4c(c(=O)[nH]3)CCCC4)CC2)cc1 [Example 116, N-(trans-4-(4-cyanophenoxy)cyclohexyl)-3-((4-oxo-3,4,5,6,7,8-hexahydroquinazolin-2-yl)thio)propanamide]
19 | 5.07 nM | 1.51 nM | 1410 nM | 4930 nM | 397 nM | 361 nM | O=C(CCCc1nc2ccccc2c(=O)[nH]1)N1CCC(n2c(=O)[nH]c3cccnc32)CC1 [Example 26, 2-(4-oxo-4-(4-(2-oxo-1,2-dihydro-3H-imidazo[4,5-b]pyridin-3-yl)-1-piperidinyl)butyl)-4(3H)-quinazolinone]
20 | 3.93 nM | 1.68 nM | 552 nM | 1280 nM | 681 nM | 980 nM | O=C(CCCc1nc2ccccc2c(=O)[nH]1)N1CCC(n2c(=O)[nH]c3c(F)cccc32)CC1 [Example 67, 2-(4-(4-(4-fluoro-2-oxo-2,3-dihydro-1H-benzimidazol-1-yl)-1-piperidinyl)-4-oxobutyl)-4(3H)-quinazolinone]
21 | 0.783 nM | 0.292 nM | 239 nM | 636 nM | 227 nM | 161 nM | N#Cc1ccc2c(c1)[nH]c(=O)n2C1CCN(C(=O)CCCc2nc3ccccc3c(=O)[nH]2)CC1 [Example 68, 2-oxo-1-(1-(4-(4-oxo-3,4-dihydro-2-quinazolinyl)butanoyl)-4-piperidinyl)-2,3-dihydro-1H-benzimidazole-5-carbonitrile]
22 | 3.26 nM | 1.25 nM | 354 nM | 1580 nM | 983 nM | 98.9 nM | N#Cc1cccc(O[C@H]2CC[C@H](NC(=O)CCCc3nc4ccccc4c(=O)[nH]3)CC2)c1 [Example 58, N-(trans-4-(3-cyanophenoxy)cyclohexyl)-4-(4-oxo-3,4-dihydro-2-quinazolinyl)butanamide]
23 | 0.549 nM | 0.43 nM | 30.2 nM | 1670 nM | 889 nM | 14.9 nM | O=C(CCCc1nc2ccccc2c(=O)[nH]1)N[C@H]1CC[C@H](c2nnc(-c3ccc(Cl)cc3)o2)CC1 [Example 29, N-(trans-4-(5-(4-chlorophenyl)-1,3,4-oxadiazol-2-yl)cyclohexyl)-4-(4-oxo-3,4-dihydro-2-quinazolinyl)butanamide]
